Key:
[1] = system: Staphylococcus aureus; assay: Disk diffusion antimicrobial susceptibility with PS-impregnated antibiotic disks; assay type: cell-based; details: 24 h, mean ± SD
Method: Briefly, Staphylococcus aureus grown in culture was seeded evenly on Muller-Hinton II Agar plates (BD Diagnostic Systems) at the standard concentration of 2×10^8 colony-forming units per mL. Antibiotic antimicrobial susceptibility disks (Thermo Scientific Oxoid™) were impregnated with one of six concentrations of PS (0%, 1%, 2%, 3%, 6%, 9%); 10 μL of each was evenly dispensed on each disk. An additional control was disks with no PS and no vehicle. The growth of bacteria around each disk was monitored and the area of “no growth” around each disk was measured 24 h later.

[2] = system: concanavalin A-induced dry eye in rabbits; assay: Concanavalin A (Con A)-induced dry eye disease (DED) model in rabbits: TBUT, Schirmer test, tear osmolarity, tear lactoferrin; assay type: in vivo, rabbit; details: after 1 week of treatment with NSAID; FIG. 5
Method: To assess the efficacy of PS on DED an improved concanavalin A model was used. In the concanavalin A model, dry eye is induced by injecting the lacrimal glands of a mammal with concanavalin A, a selective T cell mitogen that induces a lymphocytic infiltrate in these glands. The concanavalin A model is generally described in (Barabino S. Animal models of dry eye. Arch Soc Esp Oftalmol. 2005; 80(12):693-4). Concanavalin A was injected to the lacrimal glands under ultrasound guidance, thus eliminating injections to the vicinity of the gland (as opposed to the gland itself). The head and the tail of the major lacrimal gland of the rabbit were injected separately. The dose of concanavalin A was optimized for DED signs.
In the testing described below, four markers of DED are monitored: the tear break up time (TBUT), the Schirmer test, tear osmolarity, and tear lactoferrin levels. All assays were performed at the same clock time (±1 hr) to avoid assay variability on account of circadian variations.
In an efficacy experiment using the concanavalin A model, one group of rabbits was treated with compound 5, also known as phosphosulindac and abbreviated as PS, 1.5% eye drops and one group with vehicle. […] It is thus clear that PS applied topically suppresses DED.
Con A was injected under ultrasound guidance into all the lacrimal glands and the success of the injection was verified by a post-injection ultrasound image (see FIG. 1 and FIG. 2). […] This variation explains why the blind injections recommended in the original method are often unsuccessful. This was confirmed by mixing the Con A solution with methylene blue and tracking its course after injection. In about ⅓ of the cases, Con A ended up outside the gland.
Four parameters of efficacy were evaluated instead of the usual one or two. They include (a) the tear break up time (TBUT), determined using 0.2% fluorescein over the eye and recording the time taken to develop black dots, lines or obvious disruption of the fluorescein film; (b) tear osmolarity, measured using TearLab Osmolarity Test and following the manufacturer's instructions (TearLab Corp., San Diego, Calif.); (3) Schirmer tear test (STT), determined using Schirmer strips (EagleVision, Denville, N.J.) inserted between the cornea and the palpebral conjunctiva at the mid-point of the lower lid and measuring the length of moistened strip at 5 min; and (4) tear lactoferrin levels measured by ELISA kit (MyBiosource, San Diego, Calif.) following the instructions of the manufacturer. All four have been used in clinical practice and correlate with the clinical activity of the disease. The STT is the least reliable and, as result, it is clinically used less than half as frequently as TBUT.
The injections of Con A to the lacrimal glands were repeated weekly as needed. When longer than a 1-week periods of study are needed, repeat injections prolong dry eye for at least 3 weeks, making the originally acute model chronic.
PS Suppresses Con A—Induced Dry Eye in Rabbits. The effect of PS on dry eye was determined in New Zealand White (NZW) rabbits, 2-3 kg (Charles River Labs, Waltham, Mass.). These rabbits were housed singly in rooms with strict temperature (70±5° F.) and humidity (45±5%) control and acclimated for at least 2 weeks prior to induction of dry eye by injection of Con A as above. NZW rabbits with Con A-induced dry eye (three sets of injections) were treated with PS formulated as nanoparticles and administered topically as eye drops 3×/day for 21 days, starting on the day of Con A injection. […] Similar results were obtained on days 5 and 14 (data not shown).
Using this model, we compared the effect of PS to that of cyclosporine and lifitegrast. Rabbits were treated for 6 days with PS as above or cyclosporine 0.05% or lifitegrast 5% eye drops 3×/day. In addition to determining TUBT, osmolarity and STT, we measured the levels of IL-8 and IL-1β in the ILGs of the rabbits harvested at euthanasia. […]

[3] = system: MMPs; assay: General MMP activity in rabbit cornea (FRET peptide); assay type: in vivo
Method: The general activity of MMPs was determined in the corneas of three groups of rabbits. This MMP activity assay employs a fluorescence resonance energy transfer (FRET) peptide as a generic MMP indicator. Rabbits were treated with PS 1.6% or ketorolac 0.5% eye drops topically applied to their eyes or were not treated (naïve group). Results in relative fluorescence units (RFU)/mg protein (mean±SEM). Naïve=1,328±123; PS=749±218; Ketoroloac=1,272±106 (p<0.03 vs PS).
In an acute experiment, naïve rabbits were treated with either PS or ketorolac (both administered topically) for 1 h and determined the activity of MMP in the cornea. This assay determines the activity of MMPs collectively in a given tissue.

[4] = system: PGE2; assay: PGE2 levels in tears and cornea of rabbits by ELISA; assay type: in vivo, rabbit; details: for PGE2 levels in the cornea: administered once topically, 1 h later, FIG. 9B; for PGE2 levels in the cornea, % of the vehicle value: day 6, PS 2.3%, diclofenac 0.1%
Method: The effects of PS, ketorolac and dicofenac (the latter two ophthalmic NSAIDs known to induce corneal melt) on the tear levels of PGE2 in rabbits with concanavalin A-induced dry eye were compared. Three eye drops of PS 1.5% or of commercially available ketorolac 0.5% were given at 0 time, and 1 h later to rabbits with concanavalin A-induced DED. Tears were obtained at 2 h and the levels of PGE2 were determined by ELISA. PGE2 in tears of naïve rabbits (not exposed to concanavalin A nor treated) was also measured. The PGE2 levels (mean±SEM) were: Naïve, 110.4±12.6 ng/ml; PS-treated, 115.4±15.8 ng/ml; Ketorolac-treated, 77.7±8.7 ng/ml. The difference in PS vs. ketorolac was significant, p<0.02; as was the difference in ketorolac vs naïve, p<0.03. Regarding this parameter, PS differs radically form ketorolac, which induces corneal melt.
Levels of PGE2 in the corneas of three groups of rabbits were determined by ELISA. Rabbits were treated with PS 1.6% or ketorolac 0.5% eye drops topically applied to their eyes or were not treated (naïve group). Results in pg/mg protein (mean±SEM). Naïve=787.3±96.3; PS=880.6±110.3; Ketrolorac=247.2±187.4 (p<0.01 vs PS).
Rabbits with DED induced by concanavalin A as above were treated for 6 days with vehicle, or PS 2.3% or ketorolac 0.5% or diclofenac 0.1%. Compared to the vehicle group, on day 6 the PGE2 levels in the cornea were 106% of the vehicle value in the PS group (not a statistically significant difference), 1.3% in the ketorolac group (p<0.0001 vs. vehicle, and 2.3% in the diclofenac group (p<0.0001 vs. vehicle).
It was determined that the levels of PGE2 in rabbit tears in three groups of rabbits, naïve and those with Con A-induced DED that were treated for 1 week either with PS or vehicle.
In an acute experiment, administered once topically to the eyes of four groups of rabbits with Con A-induced DED was one of the following: vehicle, PS, ketorolac or diclofenac; the latter two are NSAIDs used for the treatment of ocular inflammation and pain. It was determined that the levels of PGE2 in the cornea of these rabbits obtained 1 h later as well as in the corneas of naïve rabbits.

[5] = system: cornea of New Zealand white rabbits; assay: Corneal touch threshold (CTT), Cochet-Bonnet aesthesiometer; assay type: in vivo, rabbit; details: Lidocaine 1%
Method: The analgesic effect of PS was determined by measuring the corneal touch threshold (CTT) using the Luneau Cochet-Bonnet Aeshesiometer (Western Ophthalmics, Lynwood, Wash.), an adjustable nylon monofilament with a defined diameter, which is applied in different lengths to the center of the cornea. This device is generally described in Lima L, Lange R R, Turner-Giannico A, Montiani-Ferreira F. Evaluation of standardized endodontic paper point tear test in New Zealand white rabbits and comparison between corneal sensitivity followed tear tests. Vet Ophthalmol. 2015; 18 Suppl 1:119-24.
A stimulus produced by the filament that reaches the CTT induces a corneal reflex, consisting of prompt eyelid closure. The CTT is quantified as centimeter length of the filament necessary to cause the blink reflex.
The CTT is determined before (baseline) and at various time points after the application of the test compound (PS). PS was formulated either in β-cyclodextrin (42 or 8 mg/ml) or in a nanocarrier (19 mg/ml). The test drug was formulated in a nanocarrier by the emulsion and evaporation method (Vauthier C, Bouchemal K. Methods for the Preparation and Manufacture of Polymeric Nanoparticles. Pharmaceutical Research; 2009; 26:1025-1058). The formulated stable drug suspension consisted of polylactic acid and polyethylene glycol (PLLA(10k)-PEG(2k)); sodium cholate; and PS. The vehicle control was either β-cyclodextrin or the nanocarrier without PS. Commercially available lidocaine 1% was used as a positive control.
To each eye of adult New Zealand white rabbits was applied […] drops of PS or vehicle or lidocaine, with 5 minutes between each drop. The time of the last drop was taken as the 0 time.
The analgesic effect of PS was further examined on the surface of the eye by determining the corneal touch threshold (CTT) using the Luneau Cochet-Bonnet Aesthesiometer (Western Ophthalmics, Lynwood, Wash.) an adjustable nylon monofilament with a defined diameter, which is applied in different lengths to the center of the cornea.

[6] = system: chorioallantoic membrane (CAM); assay: Chorioallantoic membrane (CAM) neovascularization assay; assay type: in vivo, chicken; details: VEGF alone; day 4; Mean ± SEM
Method: Second, the effect of PS on new vessel formation (neovascularization) was evaluated using the chorioallantoic membrane (CAM) assay. In this assay, fertilized white chicken eggs (SPF Premium, Charles River Laboratory, North Franklin, Conn.) were incubated at 37° C. in 70% humidity for 3 days. The embryos were then incubated ex vivo in a sterile Petri dish for 7 days. Gelatin sponges adsorbed with or without VEGF plus PS or water (vehicle control) were implanted on the CAM surface and the neovasculature was counted on day 4 post implantation under a dissecting microscope.

[7] = antibiotic disk with PS 0% (vehicle only)
[8] = rabbits, PS 1.6% or ketorolac 0.5% eye drops, mean±SEM
[9] = Con A DED rabbits, ketorolac 0.5%

Compound | Inhibition Zone [1, 7] [mm] | Inhibition Zone ([1]; antibiotic disk with PS 1%) [mm] | Inhibition Zone ([1]; antibiotic disk with PS 2%) [mm] | Inhibition Zone ([1]; antibiotic disk with PS 3%) [mm] | Inhibition Zone ([1]; antibiotic disk with PS 6%) [mm] | Inhibition Zone ([1]; antibiotic disk with PS 9%) [mm] | TBUT, osmolarity and STT [2] | PGE2 levels in the cornea ([4]; Con A DED rabbits) | PGE2 levels in the cornea, % of the vehicle value [4, 9] [%] | other results
O=C(O)c1cn(C2CC2)c2cc(N3CCNCC3)c(F)cc2c1=O [Ciprofloxacin] | 30.0 ± 0.0 | 30.3 ± 0.6 | 29.7 ± 0.6 | 29.3 ± 0.6 | 27.7 ± 0.4 | 29.7 ± 0.6 | – | – | – | –
O=C(c1ccccc1)c1ccc2n1CCC2C(=O)O (stereo not shown) [Ketorolac, ketorolac] | – | – | – | – | – | – | failed to improve | suppressed nearly completely | 1.3 | MMP activity in the cornea ([3]; naïve rabbits, topical, 1 h): failed to affect; general activity of MMPs in the corneas [3, 8]: 1,272±106 RFU/mg protein; PGE2 levels in tears ([4]; Con A DED rabbits, three eye drops at 0 and 1 h, tears at 2 h, PS 1.5%, ketorolac 0.5%, mean±SEM): 77.7 ± 8.7 ng/mL; PGE2 levels in the corneas [4, 8]: 247.2±187.4 pg/mg protein
C[C@H]1COc2c(N3CCN(C)CC3)c(F)cc3c(=O)c(C(=O)O)cn1c23 [Levofloxacin] | 32.3 ± 0.6 | 32.7 ± 0.6 | 32.0 ± 0.0 | 31.7 ± 0.6 | 32.3 ± 1.5 | 31.0 ± 1.0 | – | – | – | –
CCN(CC)CC(=O)Nc1c(C)cccc1C [Lidocaine, lidocaine, reference compound] | – | – | – | – | – | – | – | – | – | Corneal touch threshold (CTT) ([5]; 1 min): 1.5 ± 1.3 centimeter; Corneal touch threshold (CTT) ([5]; 5 min): 2.3 ± 1.5 centimeter; Corneal touch threshold (CTT) ([5]; 10 min): 3.1 ± 1.9 centimeter; Corneal touch threshold (CTT) ([5]; 20 min): 4.0 ± 1.3 centimeter; Corneal touch threshold (CTT) ([5]; 30 min): 5.8 ± 0.6 centimeter; Corneal touch threshold (CTT) ([5]; 45 min): 5.8 ± 0.6 centimeter; Corneal touch threshold (CTT) ([5]; 60 min): 6.0 ± 0.0 centimeter; Corneal touch threshold (CTT) ([5]; baseline): 6.0 ± 0.0 centimeter
O=C(O)Cc1ccccc1Nc1c(Cl)cccc1Cl [diclofenac] | – | – | – | – | – | – | failed to improve | suppressed nearly completely | 2.3 | –
VEGF [reference compound] | – | – | – | – | – | – | – | – | – | # of new vessels [6]: 62.3 ± 1.8

Reference: patent US11510931B2, “Compositions and methods for treating ophthalmic conditions” (MEDICON PHARMACEUTICALS, INC., priority 2016, dated 2022)
